This is an account of results in patent US10865397B2, “Recombinant polynucleotide sequence for producing astaxanthin and uses thereof” (ACADEMIA SINICA, priority 2014, dated 2020).

Data set [1] concerns WT strain. Put plainly: Stress tolerance test: pretreated cells, series dilution on YPG plate. The settings on record: colonies on plate (FIG. 27B). An excerpt: (§1) For the biorefinery application, plant biomass is one of the most abundant renewable resources on earth and is considered an essential building block for developing a sustainable society. Renewable biological resources from plant can be converted into bioproducts, such as biofuels, biochemicals, biolubricants, and biodegradable materials. To utilize the sugars contained in plant biomass, many available treatment techniques, including acid hydrolysis, steam explosion, ammonia fiber expansion, organosolv, sulfite pretreatment, alkaline wet oxidation, ozone pretreatment, and enzyme treatment, are employed for lignocellulose destruction. Toxins produced during acid and steam pretreatment of lignocellulose cover a large range of substances, such as furfural and hydroxymethylfurfural from hemicellulose and cellulose, alcohols and aldehydes from lignin, and heavy metals from bioreactor. Accordingly, the second stress factor examined was furfural treatment.
(§2) WT and Cz30 strains were further tested for ethanol and butanol treatments.

For data set [2], the system named is Cz30 strain. The data set is described as above.
Text: as §1, §2

The test system of data set [3] is Cz30 strain.
Procedure: (§3) After 24 hours, the cells were inoculated into the YPG plate with a series dilution and cultivated for another 48 hours.
The conditions of data set [4]: 3′S, 3′S compared with the 3′R3′R, 3′R stereoisomer; cited from earlier work.
Data set [5] has as its system WT strain. To be noted: 2, 4, or 6% ethanol in YPG medium, 24 hours.
Procedure: as §3

For `O=Cc1ccco1` [furfural], the furfural treatment tolerated is 80 mM in the data set with WT strain [1] and 100 mM in the data set on Cz30 strain [2] (Cz30 strain, colonies on plate (FIG. 27B)).
Regarding `CC(=O)O[C@@]12CO[C@@H]1C[C@H](O)[C@@]1(C)C(=O)[C@H](O)C3=C(C)[C@@H](O)C[C@@](O)([C@@H](OC(=O)c4ccccc4)[C@H]21)C3(C)C` [10-deacetyl baccatin III], in the data set with Cz30 strain [2] (3.2 mM 10-deacetyl baccatin III in 12% ethanol, 24 hours, then 48 hours on plate, Cz30 versus WT), the “colony growth on YPG plate after pretreatment” value is “Cz30 colonies grew better than WT”. The “damage to cultured yeasts compared with ethanol alone” value in the data set with Cz30 strain [3] (0.8 mM with 4% ethanol or 1.2 mM with 6% ethanol versus 4% or 6% ethanol, WT and Cz30 (FIG. 29B)) is recorded as “higher degree of damage”. For the same molecule, the “growth in medium containing 10-deacetyl baccatin III” value in the data set with Cz30 strain [3] (0.4-1.2 mM in YPG medium, Cz30 versus WT) is listed as “Cz30 grew better than WT”.
For `CC(C)CO` [isobutanol], the “colony growth on YPG plate after treatment” value in the data set with Cz30 strain [2] is “Only some Cz30 colonies could grow”.
Regarding `CC1=C(/C=C/C(C)=C/C=C/C(C)=C/C=C/C=C(C)/C=C/C=C(C)/C=C/C2=C(C)C(=O)[C@@H](O)CC2(C)C)C(C)(C)C[C@@H](O)C1=O` [3′R3′R, 3′S mesoform, 3′R3′R, 3′S astaxanthin], the “antioxidant activity of astaxanthin stereoisomers” value in data set [4] was “no antioxidant activity”.
In the case of `CCO` [ethanol], the “colony growth on YPG plate after treatment” value in the data set on Cz30 strain [2] was “Only some Cz30 colonies could grow”. In addition, the “cell growth in presence of ethanol” value was “weakly affected” with Cz30 strain [3] (2, 4, or 6% ethanol in YPG medium, 24 hours) and “significantly repressed” in the data set with WT strain [5].
For `CC1=C(/C=C/C(C)=C/C=C/C(C)=C/C=C/C=C(C)/C=C/C=C(C)/C=C/C2=C(C)C(=O)[C@@H](O)CC2(C)C)C(C)(C)C[C@H](O)C1=O` (single isomer, unassigned; stereoisomer 3) [3′S, 3′S stereoisomer, 3′S, 3′S-astaxanthin], the “antioxidant activity of astaxanthin stereoisomers” value in data set [4] was “higher antioxidant activity”.
